{"source": "patent US11185554B2", "about": "(priority 2016, dated 2021)", "key": {"ebola virus": {"tested_on": "ebola virus", "design": "species or system C57BL/6J mice", "conditions": "mouse, in vivo"}, "EBOV": {"tested_on": "EBOV", "design": "species or system C57BL/6J mice", "conditions": "mouse, in vivo"}, "[1]": {"tested_on": "cytokines, chemokines in the peripheral blood", "design": "species or system C57BL/6J mice", "conditions": "mouse, in vivo"}, "influenza": {"tested_on": "influenza", "conditions": "mouse, in vivo; cited from earlier work"}, "[2]": {"tested_on": "neutrophils and T cells in the peripheral blood", "design": "species or system C57BL/6J mice", "conditions": "mouse, in vivo"}, "free radicals (ROS/RNS)": {"tested_on": "free radicals (ROS/RNS)", "design": "species or system C57BL/6J mice", "conditions": "mouse, in vivo"}}}
{"smiles": "CCCCCC/C=C\\CCCCCCCCCC(=O)N[C@H]1[C@H](OC[C@H]2O[C@H](OP(=O)(O)O)[C@H](NC(=O)CC(=O)CCCCCCCCCCC)[C@@H](OCCCCCCCCCC)[C@@H]2O)O[C@H](COC)[C@@H](OP(=O)(O)O)[C@@H]1OCC[C@@H](CCCCCCC)OC", "note": "[eritoran, α-D-Glucopyranose, 3-O-decyl-2-deoxy-6-O-[2-deoxy-3-O-[(3R)-3-methoxydecyl)-6-O-methyl-2-[[(-11Z)-1-oxo-11-octadecenyl)amino]-4-O-phosphono-3-D-glucopyranosyl]-2-[(1,3-dioxotetradecyl)amino]-1-(dihydrogen phosphate)]", "values": [{"measurement": "protection against ebola virus challenge", "setting": "ebola virus", "result": "does not protect"}, {"measurement": "reduction of viremia versus placebo", "setting": "EBOV", "result": "two-logs"}, {"measurement": "viremia (quantitative RT-PCR)", "setting": "EBOV", "result": "10^5 genome equivalents per mL"}, {"measurement": "decrease of serum levels of leukemia inhibitory factor (LIF)", "setting": "[1]", "result": 10.3, "unit": "fold"}, {"measurement": "increase in the production of KC", "setting": "[1]", "result": 10.0, "unit": "fold"}, {"measurement": "increase of levels of G-CSF", "setting": "[1]", "result": 7.0, "unit": "fold"}, {"measurement": "increase of levels of M-CSF", "setting": "[1]", "result": 58, "unit": "%"}, {"measurement": "reduction of serum IL-7 levels", "setting": "[1]", "result": 41, "unit": "%"}, {"measurement": "serum IL-6 level", "setting": "[1]", "result": "reduced"}, {"measurement": "serum IL-9 level", "setting": "[1]", "result": "reduced"}, {"measurement": "serum IL-10 level", "setting": "[1]", "result": "reduced"}, {"measurement": "serum IL-13 level", "setting": "[1]", "result": "reduced"}, {"measurement": "serum MIG level", "setting": "[1]", "result": "significantly decreased"}, {"measurement": "serum MIP-1α level", "setting": "[1]", "result": "significantly decreased"}, {"measurement": "serum MIP-1β level", "setting": "[1]", "result": "significantly decreased"}, {"measurement": "serum MIP-2 level", "setting": "[1]", "result": "significantly decreased"}, {"measurement": "serum RANTES level", "setting": "[1]", "result": "significantly decreased"}, {"measurement": "serum TNFα level", "setting": "[1]", "result": "reduced"}, {"measurement": "serum IP-10 level", "setting": "[1]; ip", "result": "significantly decreased"}, {"measurement": "protection from lethal influenza challenge", "setting": "influenza", "result": "protected"}, {"measurement": "B-cells, NK-cells and monocytes populations", "setting": "[2]", "result": "no effect"}, {"measurement": "absolute count of CD3+, CD3+CD4+ and CD3+CD8+ T cells", "setting": "[2]", "result": "further reduced"}, {"measurement": "expansion of the neutrophil population (absolute counts)", "setting": "[2]", "result": "blocked expansion"}, {"measurement": "granulocytes, absolute count", "setting": "[2]", "result": "2,786 cells/μl"}, {"measurement": "increase of percentages of CD4+ T cells positive for IL-4", "setting": "[2]", "result": 3.8, "unit": "fold"}, {"measurement": "increase of percentages of CD4 T cells positive for CD69", "setting": "[2]", "result": 2.8, "unit": "fold"}, {"measurement": "levels of IFNγ-secreting CD4+ T cells", "setting": "[2]", "result": "dramatically reduced"}, {"measurement": "levels of IFNγ-secreting CD8+ T cells", "setting": "[2]", "result": "dramatically reduced"}, {"measurement": "levels of IL-17A-secreting CD4+ T cells", "setting": "[2]", "result": "dramatically reduced"}, {"measurement": "percentages of CD11b+Ly6G/Ly6C+ neutrophils in gated granulocytes, placebo versus eritoran", "setting": "[2]", "result": "no difference"}, {"measurement": "percentages of neutrophils expressing activation marker CD64", "setting": "[2]", "result": "significantly increased"}, {"measurement": "percentages of neutrophils expressing activation marker CD69", "setting": "[2]", "result": "significantly increased"}, {"measurement": "ratio of CD11b+Ly6G/Ly6C+ neutrophils to CD3+ T-lymphocytes", "setting": "[2]", "result": 11.05}, {"measurement": "ratio of CD11b+Ly6G/Ly6C+ neutrophils to total lymphocytes", "setting": "[2]", "result": 2.15}, {"measurement": "reduction of free radicals (ROS/RNS)", "setting": "free radicals (ROS/RNS)", "result": 23, "unit": "%"}]}
